Tests used:
[1] = tested on: antibodies in sera from SARS patients (sera 1a, 1b, 2, 6, 37, 62, London, SARS-yellow, SARS-green); assay type: binding, human; set-up: Binding of serum 6 to linear peptides of protein X1 of SARS-CoV Urbani / Binding of serum 37 to linear peptides of protein X1 of SARS-CoV Urbani / Binding of serum 6 to looped/cyclic peptide (PEPSCAN-ELISA) / Binding of serum 37 to looped/cyclic peptide (PEPSCAN-ELISA) / Binding of serum 37 to looped/cyclic peptides of protein X1 of SARS-CoV Urbani / Binding of serum 6 to linear peptides of protein X2 / Binding of serum 37 to linear peptides of protein X2 / Binding of serum 37 to looped/cyclic peptides of protein X2 of SARS-CoV Urbani / Binding of serum 6 to linear peptides of protein M of SARS-CoV Urbani / Binding of serum 37 to linear peptides of protein M of SARS-CoV Urbani / Binding of serum 6 to looped/cyclic peptides of protein M of SARS-CoV Urbani / Binding of serum 37 to looped/cyclic peptides of protein M of SARS-CoV Urbani / Binding of serum 6 to linear peptides of protein X3 of SARS-CoV Urbani / Binding of serum 37 to linear peptides of protein X3 of SARS-CoV Urbani / Binding of serum 37 to looped/cyclic peptides of protein X3 of SARS-CoV Urbani / Binding of serum 6 to linear peptides of protein X4 of SARS-CoV Urbani / Binding of serum 37 to linear peptides of protein X4 of SARS-CoV Urbani / Binding of serum 37 to looped/cyclic peptides of protein X4 of SARS-CoV Urbani / Binding of serum 6 to linear peptides of protein X5 of SARS-CoV Urbani / Binding of serum 37 to linear peptides of protein X5 of SARS-CoV Urbani / Binding of serum 37 to looped/cyclic peptides of protein X5 of SARS-CoV Urbani / Binding of serum 6 to linear peptides of protein N of SARS-CoV Urbani / Binding of serum 37 to linear peptides of protein N of SARS-CoV Urbani / Binding of serum 6 to linear peptide (PEPSCAN-ELISA) / Binding of serum 1a to looped/cyclic peptides of protein N of SARS-CoV Urbani / Binding of serum 1b to looped/cyclic peptides of protein N of SARS-CoV Urbani / Binding of serum 2 to looped/cyclic peptides of protein N of SARS-CoV Urbani / Binding of serum 6 to looped/cyclic peptides of protein N of SARS-CoV Urbani / Binding of serum 37 to looped/cyclic peptides of protein N of SARS-CoV Urbani / Binding of serum 62 to looped/cyclic peptides of protein N of SARS-CoV Urbani / Binding of serum London to looped/cyclic peptides of protein N of SARS-CoV Urbani / Binding of serum SARS-green to looped/cyclic peptides of protein N of SARS-CoV Urbani: unit not given here
[2] = tested on: control sera (pooled serum of ten healthy LUMC hospital workers; commercial negative donor pooled serum from the Dutch bloodbank); assay type: binding, human; set-up: Binding of Control serum LUMC to linear peptides / Binding of Control serum Blood-bank to linear peptides / Binding of Control serum LUMC to looped peptides / Binding of Control Serum Blood-Bank to Looped peptides / Binding of Control serum LUMC to linear peptides of the protein M of SARS-CoV Urbani / Binding of Control serum Blood-bank to linear peptides of the protein M of SARS-CoV Urbani / Binding of Control serum LUMC to looped peptides of the protein M of SARS-CoV Urbani / Binding of Control Serum Blood-Bank to Looped peptides of the protein M of SARS-CoV Urbani: unit not given here

ACRTIMRCWLCWKCK
Binding of serum 1a to looped/cyclic peptide (PEPSCAN-ELISA) [1]: 0.7
Binding of serum 1b to looped/cyclic peptide (PEPSCAN-ELISA) [1]: 0.9
Binding of serum 2 to looped/cyclic peptide (PEPSCAN-ELISA) [1]: 0.6
Binding of serum 6 to looped/cyclic peptide (PEPSCAN-ELISA) [1]: 0.3
Binding of serum 37 to looped/cyclic peptide (PEPSCAN-ELISA) [1]: 0.8
Binding of serum 62 to looped/cyclic peptide (PEPSCAN-ELISA) [1]: 0.5
Binding of serum London to looped/cyclic peptide (PEPSCAN-ELISA) [1]: 0.2
Binding of serum SARS-green to looped/cyclic peptide (PEPSCAN-ELISA) [1]: 1.2
Binding of serum SARS-yellow to looped/cyclic peptide (PEPSCAN-ELISA) [1]: 0.7

CPSGTYEGNSPFHPL
Binding of Control Serum Blood-Bank to Looped peptides [2]: 0.8
Binding of Control serum Blood-bank to linear peptides [2]: 0.7
Binding of Control serum LUMC to linear peptides [2]: 0.6
Binding of Control serum LUMC to looped peptides [2]: 0.8

HRWHTMVQTGTPNVT
Binding of Control Serum Blood-Bank to Looped peptides [2]: 0.4
Binding of Control serum Blood-bank to linear peptides [2]: 0.8
Binding of Control serum LUMC to linear peptides [2]: 0.4
Binding of Control serum LUMC to looped peptides [2]: 0.4

LACPVLAAVYRINWV
Binding of Control Serum Blood-Bank to Looped peptides of the protein M of SARS-CoV Urbani [2]: 0.7
Binding of Control serum Blood-bank to linear peptides of the protein M of SARS-CoV Urbani [2]: 0.7
Binding of Control serum LUMC to linear peptides of the protein M of SARS-CoV Urbani [2]: 0.6
Binding of Control serum LUMC to looped peptides of the protein M of SARS-CoV Urbani [2]: 0.7

LCKHKKVSTNLGTHS
Binding of serum 1a to looped/cyclic peptides of protein X2 of SARS-CoV Urbani [1]: 0.3
Binding of serum 1b to looped/cyclic peptides of protein X2 of SARS-CoV Urbani [1]: 0.4
Binding of serum 2 to looped/cyclic peptides of protein X2 of SARS-CoV Urbani [1]: 0.3
Binding of serum 6 to looped/cyclic peptides of protein X2 of SARS-CoV Urbani [1]: 0.3
Binding of serum 37 to looped/cyclic peptides of protein X2 of SARS-CoV Urbani [1]: 0.3
Binding of serum 62 to looped/cyclic peptides of protein X2 of SARS-CoV Urbani [1]: 0.4
Binding of serum London to looped/cyclic peptides of protein X2 of SARS-CoV Urbani [1]: 0.3
Binding of serum SARS-green to looped/cyclic peptides of protein X2 of SARS-CoV Urbani [1]: 0.3
Binding of serum SARS-yellow to looped/cyclic peptides of protein X2 of SARS-CoV Urbani [1]: 0.5

LLIQQWTQFMMSRRR
Binding of Control Serum Blood-Bank to Looped peptides [2]: 0.6
Binding of Control serum Blood-bank to linear peptides [2]: 0.5
Binding of Control serum LUMC to linear peptides [2]: 0.4
Binding of Control serum LUMC to looped peptides [2]: 0.5

QLALYKGFQPICNLL
Binding of serum 1a to linear peptides of protein X1 of SARS-CoV Urbani [1]: 0.6
Binding of serum 1b to linear peptides of protein X1 of SARS-CoV Urbani [1]: 0.5
Binding of serum 2 to linear peptides of protein X1 of SARS-CoV Urbani [1]: 0.4
Binding of serum 6 to linear peptides of protein X1 of SARS-CoV Urbani [1]: 0.5
Binding of serum 37 to linear peptides of protein X1 of SARS-CoV Urbani [1]: 0.6
Binding of serum 62 to linear peptides of protein X1 of SARS-CoV Urbani [1]: 0.6
Binding of serum London to linear peptides of protein X1 of SARS-CoV Urbani [1]: 0.2
Binding of serum SARS-green to linear peptides of protein X1 of SARS-CoV Urbani [1]: 0.2
Binding of serum SARS-yellow to linear peptides of protein X1 of SARS-CoV Urbani [1]: 0.5

RTLSYYKLGASQPVG
Binding of Control Serum Blood-Bank to Looped peptides of the protein M of SARS-CoV Urbani [2]: 0.6
Binding of Control serum Blood-bank to linear peptides of the protein M of SARS-CoV Urbani [2]: 0.9
Binding of Control serum LUMC to linear peptides of the protein M of SARS-CoV Urbani [2]: 0.8
Binding of Control serum LUMC to looped peptides of the protein M of SARS-CoV Urbani [2]: 0.8

TLGSITAQPVKTDNA
Binding of Control Serum Blood-Bank to Looped peptides [2]: 0.6
Binding of Control serum Blood-bank to linear peptides [2]: 0.5
Binding of Control serum LUMC to linear peptides [2]: 0.7
Binding of Control serum LUMC to looped peptides [2]: 0.6

WQLALYKGFQFTCNL
Binding of Control Serum Blood-Bank to Looped peptides [2]: 0.6
Binding of Control serum Blood-bank to linear peptides [2]: 0.6
Binding of Control serum LUMC to linear peptides [2]: 0.6
Binding of Control serum LUMC to looped peptides [2]: 0.7
